Measured values as given in US9273184B1, “Synthesis of highly fluorinated amines for use in polymers and biomaterials” (University of Southern California, priority 2009, dated 2016).
Counter-ions that a name gives are not always drawn.

Experiment: 31P NMR evidence for guanidinium-phosphonate binding (addition of amphiphile or comparator to MePO3K2)
Conditions: for change of the 31P signal of the phosphonate on addition (shift and broadening, in words): FIGS. 11A-D
From the text: Guanidinium binds to phosphonate through a salt bridge that is buttressed by a bidentate hydrogen bonding system FIG. 10. This interaction is generally stable within a wide range of pH values. Thus, guanidinium-functionalized amphiphiles (29a-c) should form complexes with phosphonates in aqueous buffer. We show here the interaction between amphipile (29a) and MePO3K2 using ^31P NMR, FIGS. 11A-D, which has been used as a probe for phosphate binding to several types of cations. […] This broadening effect is more pronounced as additional compound (29a) is added. The change in the shape of the peak is consistent with reduced tumbling associated with increased size or reversible association of compound (29a) with MePO3K2, which indicates complexation between the guanidinium species and the phosphonate group. […] Thus, guanidinium compound (29a) is not merely protonating the phosphonate in FIG. 11A. […] Urea is structurally similar to guanidinium and can potentially complex a phosphonate in a manner similar to compound (29a) (FIG. 10). In the presence of HCl, similar chemical behavior is expected when MePO3K2 is treated with urea as when it is treated with compound 29.

Structure (SMILES)	change of the 31P signal of the phosphonate on addition (shift and broadening, in words)	31P Chemical shift of MePO3K2 (MePO3K2 + 1 eq of additive)	31P Half-Height Width of MePO3K2 (MePO3K2 + 1 eq of additive)	31P Chemical shift of MePO3K2 (MePO3K2 + 2 eq of additive)	31P Half-Height Width of MePO3K2 (MePO3K2 + 2 eq of additive)	31P Chemical shift of MePO3K2 (MePO3K2 + 3 eq of additive)	31P Half-Height Width of MePO3K2 (MePO3K2 + 3 eq of additive)	31P chemical shift of protonated MePO3H2 (in the presence of HCl, FIG. 11B, equivalents not given)	31P Chemical shift of MePO3K2 (MePO3K2 + 4 eq of additive)	31P Half-Height Width of MePO3K2 (MePO3K2 + 4 eq of additive)	31P Chemical shift of MePO3K2 (MePO3K2 + 1 eq urea + 2 eq HCl)	31P Half-Height Width of MePO3K2 (MePO3K2 + 1 eq urea + 2 eq HCl)	31P Chemical shift of MePO3K2 (MePO3K2 + 4 eq urea + 2 eq HCl)	31P Half-Height Width of MePO3K2 (MePO3K2 + 4 eq urea + 2 eq HCl)
Cl [HCl]	remains sharp and shifts downfield	27.8 ppm	3.8 Hz	29.9 ppm	3.4 Hz	30.4 ppm	3.4 Hz	30.4 ppm	–	–	–	–	–	–
Cl.N [NH4Cl]	small downfield shift like HCl, but did not broaden the signal	21.8 ppm	3.6 Hz	–	–	–	–	–	22.1 ppm	4.2 Hz	–	–	–	–
NC(N)=O [urea, Urea]	do not broaden	–	–	–	–	–	–	–	–	–	27.6 ppm	3.3 Hz	27.7 ppm	3.6 Hz
